Reference: US20240376097A1, “BCL-2 Inhibitor” (BeiGene Ltd., priority 2020, published 2024)

Legend:
[1] = biological target: Recombinant human Bcl-2 protein (Homo sapiens (Human), UniProt P10415); test: Bcl-2 TR-FRET Assay; type: binding; conditions: Bcl-2 wild type, TR-FRET; read-out: Biochemical assay (IC50, nM) Bcl-2 WT
Summary of the method: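 0.05 nM recombinant Bcl-2 preincubated 0.5 h at room temperature with 10-point compound dilutions (top final 1, 0.1, 0.02 or 0.01 uM) in pH 7.5 phosphate buffer. FITC-Bak peptide (0.5 nM) and anti-6His Tb cryptate then added for 1 h. TR-FRET read; IC50 from four-parameter logistic fit.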

[2] = tested on: BCL-2 G101V knock-in cell line H96 (derive from RS4;11); test: Bcl 2-G101V Knock-In RS4;11 Cell Proliferation Assay; type: cell-based; conditions: Homo sapiens, RS4;11 Bcl-2 G101V knock-in clone H96, 48 hrs, CellTiter-GLO, read-out: Cellular proliferation assay (IC50, nM) RS4
Summary of the method: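 H96, a CRISPR-generated RS4;11 clone carrying BCL2-G101V knock-in (WES/RNA-seq validated), seeded 50,000 per well and exposed 48 h at 37 °C to 10-point dilutions topping at 1 or 10 μM. Viability by CellTiter-Glo luminescence; mean IC50.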

[3] = tested on: recombinant human Bcl-2-G101V protein; test: Bcl-2-G101V TR-FRET Assay; type: binding; conditions: ratio of biochemical IC50 Bcl-2 G101V / Bcl-2 WT
Summary of the method: (§1)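 TR-FRET read at excitation 337 nm with emission at 490 nm and 520 nm. Inhibition of Bcl-2-G101V binding to its ligand across increasing compound concentrations was calculated from the 490/520 nm fluorescence ratio, and IC50 values came from four-parameter logistic fits.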

[4] = biological target: recombinant human Bcl-2-G101V protein (Homo sapiens (Human), UniProt P10415, G101V); test: Bcl-2-G101V TR-FRET Assay; type: binding; conditions: Bcl-2 G101V mutant, TR-FRET; read-out: Biochemical assay (IC50, nM) Bcl-2 G101V
Summary of the method: as §1

[5] = tested on: RS4;11 (BCL-2 dependent acute lymphoblastic leukemia cell line); test: RS4;11 Cell Proliferation Assay; type: cell-based; conditions: Homo sapiens, RS4-11, RS4;11 cells, read-out: Cellular proliferation assay (IC50, nM) RS4
Summary of the method: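 RS4;11 cells, 50,000 per well in RPMI-1640 with 10% FBS, treated 48 h at 37 °C with a 10-point dilution series topping at 1 μM. Viability read by CellTiter-Glo ATP luminescence; mean IC50 reported.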

Row | SMILES | IC50 [1] | IC50 [2] | Ratio of Bcl-2 G101V/WT [3] | IC50 [4] | IC50 [5]
1 | COc1cc(CN2CCN(C3CC4(C3)CN(c3ccc(C(=O)NS(=O)(=O)c5ccc(NC[C@H]6CC[C@](C)(O)CC6)c([N+](=O)[O-])c5)c(Oc5cnc6[nH]cc(F)c6c5)c3)C4)[C@H](c3ccccc3C(C)C)C2)cc2c1OCCCO2 [Example 335, 2-((3-fluoro-1H-pyrrolo[2,3-b]pyridin-5-yl)oxy)-N-((4-((((1r,4r)-4-hydroxy-4-methylcyclohexyl)methyl)amino)-3-nitrophenyl)sulfonyl)-4-(6-((R)-2-(2-isopropylphenyl)-4-((9-methoxy-3,4-dihydro-2H-benzo[b][1,4]dioxepin-7-yl)methyl)piperazin-1-yl)-2-azaspiro[3.3]heptan-2-yl) benzamide] | 0.06 nM | 0.34 nM | 2.6 | 0.15 nM | 0.17 nM
2 | CCc1ccc(CN2CCN(C3CC4(CCN(c5ccc(C(=O)NS(=O)(=O)c6ccc(NC[C@H]7CC[C@](C)(O)CC7)c([N+](=O)[O-])c6)c(Oc6cnc7[nH]ccc7c6)c5)CC4)C3)C(c3ccccc3C(C)C)C2)cc1 (some centres unmarked) [Example 153] | 0.6 nM | 6.48 nM | 4.4 | 2.7 nM | 0.75 nM
3 | CC(C)c1ccccc1[C@@H]1CN(Cc2ccc3c(c2)OCC3)CCN1C1CC2(CCN(c3ccc(C(=O)NS(=O)(=O)c4ccc(NC[C@H]5CC[C@](C)(O)CC5)c([N+](=O)[O-])c4)c(Oc4cnc5[nH]cc(F)c5c4)c3)CC2)C1 [Example 305, 4-(2-((R)-4-((2,3-dihydrobenzofuran-6-yl)methyl)-2-(2-isopropylphenyl)piperazin-1-yl)-7-azaspiro[3.5]nonan-7-yl)-2-((3-fluoro-1H-pyrrolo[2,3-b]pyridin-5-yl)oxy)-N-((4-((((1r,4r)-4-hydroxy-4-methylcyclohexyl)methyl)amino)-3-nitrophenyl)sulfonyl) benzamide] | 0.19 nM | 1.3 nM | 3.2 | 0.6 nM | 0.32 nM
4 | COc1ccc(CN2CCN(C3CC4(CCN(c5ccc(C(=O)NS(=O)(=O)c6ccc(NC[C@H]7CC[C@](C)(O)CC7)c([N+](=O)[O-])c6)c(Oc6cnc7[nH]ccc7c6)c5)CC4)C3)[C@@H](c3ccccc3C(C)C)C2)cc1OC [Example 81b] | 0.074 nM | 11.6 nM | 27 | 2 nM | 2.85 nM
5 | CC(C)c1ccccc1C1CN(S(C)(=O)=O)CCN1C1CC2(CCN(c3ccc(C(=O)NS(=O)(=O)c4ccc(NC[C@H]5CC[C@](C)(O)CC5)c([N+](=O)[O-])c4)c(Oc4cnc5[nH]ccc5c4)c3)CC2)C1 (some centres unmarked) [Example 66, 2-((1H-pyrrolo[2,3-b]pyridin-5-yl)oxy)-N-((4-((((1r,4r)-4-hydroxy-4-methylcyclohexyl)methyl)amino)-3-nitrophenyl)sulfonyl)-4-(2-(2-(2-isopropylphenyl)-4-(methylsulfonyl)piperazin-1-yl)-7-azaspiro[3.5]nonan-7-yl) benzamide] | 0.034 nM | 6.61 nM | 47.1 | 1.6 nM | 0.6 nM
6 | COc1cc(CN2CCN(C3CC4(C3)CN(c3ccc(C(=O)NS(=O)(=O)c5ccc(NC[C@H]6CC[C@](C)(O)CC6)c([N+](=O)[O-])c5)c(Oc5cnc6[nH]cc(F)c6c5)c3)C4)[C@H](c3ccccc3C(C)C)C2)ccc1C1CCC1 [Example 341, 4-(6-((R)-4-(4-cyclobutyl-3-methoxybenzyl)-2-(2-isopropylphenyl)piperazin-1-yl)-2-azaspiro[3.3]heptan-2-yl)-2-((3-fluoro-1H-pyrrolo[2,3-b]pyridin-5-yl)oxy)-N-((4-((((1r,4r)-4-hydroxy-4-methylcyclohexyl)methyl)amino)-3-nitrophenyl)sulfonyl)benzamide] | 1.6 nM | 0.68 nM | 2.8 | 4.5 nM | 0.12 nM
7 | CC(C)c1ccccc1[C@@H]1CN(CC2C3CC4CC(C3)CC2C4)CCN1C1CC2(CCN(c3ccc(C(=O)NS(=O)(=O)c4ccc(NC[C@H]5CC[C@](C)(O)CC5)c([N+](=O)[O-])c4)c(Oc4cnc5[nH]ccc5c4)c3)CC2)C1 (stereo partly drawn) [Example 259, 2-((1H-pyrrolo[2,3-b]pyridin-5-yl)oxy)-4-(2-((2R)-4-(((1R,3S,5R)-adamantan-2-yl)methyl)-2-(2-isopropylphenyl)piperazin-1-yl)-7-azaspiro[3.5]nonan-7-yl)-N-((4-((((1r,4r)-4-hydroxy-4-methylcyclohexyl)methyl)amino)-3-nitrophenyl)sulfonyl)benzamide] | 0.91 nM | 4.2 nM | 3.8 | 3.4 nM | 0.55 nM
8 | CCc1ccccc1C1CN(Cc2ccc(OC)cc2)CCN1C1CC2(CCN(c3ccc(C(=O)NS(=O)(=O)c4ccc(NC[C@H]5CC[C@](C)(O)CC5)c([N+](=O)[O-])c4)c(Oc4cnc5[nH]ccc5c4)c3)CC2)C1 (some centres unmarked) [Example 76, 2-((1H-pyrrolo[2,3-b]pyridin-5-yl)oxy)-4-(2-(2-(2-ethylphenyl)-4-(4-methoxybenzyl)piperazin-1-yl)-7-azaspiro[3.5]nonan-7-yl)-N-((4-((((1r,4r)-4-hydroxy-4-methylcyclohexyl)methyl)amino)-3-nitrophenyl)sulfonyl)benzamide] | 0.074 nM | 6.5 nM | 17 | 1.3 nM | 0.69 nM
9 | COc1ccc(CN2CCN(C3CC4(C3)CN(c3ccc(C(=O)NS(=O)(=O)c5ccc(NCC67CC8CC(C6)C(OC)C(C8)C7)c([N+](=O)[O-])c5)c(Oc5cnc6[nH]cc(F)c6c5)c3)C4)[C@H](c3ccccc3C(C)C)C2)cc1 (stereo partly drawn) [Example 356, 2-((3-fluoro-1H-pyrrolo[2,3-b]pyridin-5-yl)oxy)-4-(6-((R)-2-(2-isopropylphenyl)-4-(4-methoxybenzyl)piperazin-1-yl)-2-azaspiro[3.3]heptan-2-yl)-N-((4-((((1S,3R,7S)-4-methoxyadamantan-1-yl)methyl)amino)-3-nitrophenyl)sulfonyl) benzamide] | 1.5 nM | 1.7 nM | 2.9 | 4.2 nM | 0.31 nM
10 | C#Cc1cc(CN2CCN(C3CC4(CCN(c5ccc(C(=O)NS(=O)(=O)c6ccc(NC[C@H]7CC[C@](C)(O)CC7)c([N+](=O)[O-])c6)c(Oc6cnc7[nH]ccc7c6)c5)CC4)C3)C(c3ccccc3C(C)C)C2)ccc1OC (some centres unmarked) [Example 151, 2-((1H-pyrrolo[2,3-b]pyridin-5-yl)oxy)-4-(2-(4-(3-ethynyl-4-methoxybenzyl)-2-(2-isopropylphenyl)piperazin-1-yl)-7-azaspiro[3.5]nonan-7-yl)-N-((4-((((1r,4r)-4-hydroxy-4-methylcyclohexyl)methyl)amino)-3-nitrophenyl)sulfonyl)benzamide] | 0.43 nM | 3.86 nM | 4.9 | 2.1 nM | 0.53 nM
